The target of this assay is T1, recombinant human cGAS enzyme (hcGAS-ΔN, residues 147–522) (Homo sapiens, UniProt Q8N884).
T1 construct: N-terminally truncated human cGAS (hcGAS-ΔN, residues 147–522); 6xHis-SUMO (N, cleaved yes); made in house; host or cells: Escherichia coli BL21 (DE3)
As to the kind of experiment: RNA-based fluorescent biosensor assay of cGAS activity (2',3'-cGAMP formation), in vitro screening. In kind it is biochemical. As to conditions: for Remaining activity (%), Fig. 1a source data / remaining activity at 20 µM: 20 μM, replicate values; for remaining activity at 20 µM: read-out: Remaining activity (%), Fig. 1a source data; for inhibition at 20 µM: peptides screened at 20 μM, Supplementary Table 1 / Fig. S5b, read-out: Inhibition %. The source says: To screen direct cGAS inhibitors targeting protein-DNA interface from our developed focused library of macrocyclic peptides, we applied an RNA-based fluorescent biosensor for 2’,3’-cGAMP to detect cGAS activity in vitro (Supplementary Fig. 1a)[49]. The formation of 2’,3’-cGAMP from ATP and GTP was catalyzed by recombinant human cGAS enzyme (hcGAS-ΔN, residues 147–522, Supplementary Fig. 1b) in the presence of ISD (interferon stimulatory DNA, a 45-bp dsDNA), which was readily quantified by the RNA-based fluorescent biosensor and was further confirmed by ion exchange chromatography (Supplementary Fig. 1c). […] Subsequently, a total of 90 macrocyclic peptides were screened at a concentration of 20 μM (Fig. 1a and Supplementary Fig. 1e), and 4 hits (XQ2, XQ8, XQ19, and XQ46) were obtained for further testing at a cut-off of 40% inhibition (Supplementary Table 1). To evaluate the inhibitory effect of the hits against cGAS in cells, we employed real-time quantitative PCR (qPCR) to examine mRNA levels of IFNΒ1 in THP1 cells. The reported cGAS inhibitor RU.521 was used as the positive control, and the non-active peptide XQ28 in the screening assay was used as the negative control. […] The inhibition of cGAS by these hits was further confirmed in the reporter cell line THP1-Lucia ISG (Invivogen) that expresses secreted luciferase induced by an IRF3-inducible ISG54 promoter (Fig. 1c). The discrepancy between the inhibitory effect of the hits in protein and cellular assays may be attributed to their different cellular permeability.
The high-throughput screening (HTS) experiments of cGAS activity are based on the method previously described. To initiate the enzyme reaction, ISD was added to the reaction solution (40 mM Tris-HCl, pH 7.5, 100 mM NaCl, 10 mM MgCl2) containing hcGAS-ΔN, ATP (Sangon Biotech, Cat# A600311) and GTP (Sangon Biotech, Cat# A620332) in a total volume of 20 ul with the final concentration of 0.5 μM, 1.5 μM, 1 mM, 1 mM, respectively, and incubated for 2 h at 37 °C. For HTS experiments, compounds were added to the same reaction conditions as described above with the final concentration of 20 μM. Z’ factors were calculated from three replicates in the 384-well plate.

Several values for one entry are separate records, joined by “and”; a condition that tells them apart may be missing. Equal entries are not always repeated. Square brackets hold non-standard residues; d marks the D form. Peptide text beside a SMILES is read from it. Hyp = O=C(O)[C@@H]1C[C@@H](O)CN1

What is called remaining activity is the signal under treatment as a percentage of the control signal. By inhibition is commonly meant the change of the read-out against control, counted positive when it falls.

T1 sequence (Q8N884 147-522, stated change not applied): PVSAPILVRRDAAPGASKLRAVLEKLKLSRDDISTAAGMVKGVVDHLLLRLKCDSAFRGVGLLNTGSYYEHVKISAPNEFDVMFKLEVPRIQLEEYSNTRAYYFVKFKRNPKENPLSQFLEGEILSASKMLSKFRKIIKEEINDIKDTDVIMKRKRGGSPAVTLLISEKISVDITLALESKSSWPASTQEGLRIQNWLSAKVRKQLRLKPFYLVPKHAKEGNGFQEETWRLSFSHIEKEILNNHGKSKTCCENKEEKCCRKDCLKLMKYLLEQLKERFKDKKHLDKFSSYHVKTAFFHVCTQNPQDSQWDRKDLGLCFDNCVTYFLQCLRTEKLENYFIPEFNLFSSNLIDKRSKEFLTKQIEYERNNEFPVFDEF

As to `CC(C)[C@@H]1NC(=O)[C@@H]2CCCN2C(=O)[C@@H](Cc2ccccc2)NC(=O)[C@H](C)NC(=O)[C@H](CCCNC(=N)N)NC(=O)[C@H](C)NC(=O)[C@@H]2CCCN2C(=O)[C@@H](Cc2ccccc2)NC(=O)[C@H](C)NC(=O)[C@H](CCCNC(=N)N)NC1=O` [XQ18, Cyclo (AfPARAfPVR)] (cyclo(ARA[dF]PVRA[dF]P)), the “Remaining activity (%), Fig. 1a source data” value (shortened to “Remaining activity (%)”) is 93.9479% and 95.218%; the remaining activity at 20 µM is 94.3%; the inhibition at 20 µM is 5%.

Consider `CC(C)[C@@H]1NC(=O)[C@H](C)NC(=O)[C@@H](Cc2ccccc2)NC(=O)[C@H](C)NC(=O)[C@H](CCCNC(=N)N)NC(=O)[C@H](C(C)C)NC(=O)[C@@H]2CCCN2C(=O)[C@@H](Cc2ccccc2)NC(=O)[C@H](C)NC(=O)[C@H](CCCNC(=N)N)NC1=O` [XQ20, Cyclo (AfAVRAfPVR)] (cyclo(AVRA[dF]PVRA[dF])), for which the “Remaining activity (%)” value was 88.8732% and 88.6928%; the remaining activity at 20 µM amounted to 89.1%; the inhibition at 20 µM turned out to be 11%.

Consider `CC(C)C[C@@H]1NC(=O)[C@H](CCCNC(=N)N)NC(=O)[C@H](C(C)C)NC(=O)[C@@H]2CCCN2C(=O)[C@@H](Cc2ccccc2)NC(=O)[C@H](C)NC(=O)[C@H](CCCNC(=N)N)NC(=O)[C@H](C(C)C)NC(=O)[C@@H]2CCCN2C(=O)[C@@H](C)NC1=O` [XQ21, Cyclo (AfPVRLaPVR)] (cyclo(A[dF]PVRL[dA]PVR)), for which the “Remaining activity (%)” value was 107.409% and 108.531%; the remaining activity at 20 µM was 108%; the inhibition at 20 µM was 0%.

Take `CC(C)[C@@H]1NC(=O)[C@@H]2CCCN2C(=O)[C@@H](C)NC(=O)[C@H](C)NC(=O)[C@H](CCCNC(=N)N)NC(=O)[C@H](C(C)C)NC(=O)[C@@H]2CCCN2C(=O)[C@@H](Cc2ccccc2)NC(=O)[C@H](C)NC(=O)[C@H](CCCNC(=N)N)NC1=O` [XQ22, Cyclo (AaPVRAfPVR)] (cyclo(A[dA]PVRA[dF]PVR)): the “Remaining activity (%)” value is 99.3962% and 98.6078%; the remaining activity at 20 µM came to 102%; the inhibition at 20 µM is 0%.

As to `CC(C)C[C@H]1NC(=O)[C@H](Cc2ccccc2)NC(=O)[C@H]2CCCN2C(=O)[C@@H]([C@H](C)O)NC(=O)[C@@H](CCCNC(=N)N)NC(=O)[C@@H](CC(C)C)NC(=O)[C@H](Cc2ccccc2)NC(=O)[C@H]2CCCN2C(=O)[C@@H](C(C)C)NC(=O)[C@@H](CCCNC(=N)N)NC1=O` [XQ23, Cyclo (tpFlrvpFlr)] (cyclo(F[dL][dR][dT][dP]F[dL][dR][dV][dP])), the “Remaining activity (%)” value is 103.183% and 102.415%; the remaining activity at 20 µM is 103%; the inhibition at 20 µM was determined as 0%.

For the compound `CC(C)C[C@H]1NC(=O)[C@H](Cc2ccccc2)NC(=O)[C@H]2CCCN2C(=O)[C@@H]([C@H](C)O)NC(=O)[C@@H](CCCNC(=N)N)NC(=O)[C@@H](CC(C)C)NC(=O)[C@H](Cc2ccccc2)NC(=O)[C@H]2CCCN2C(=O)[C@@H]([C@H](C)O)NC(=O)[C@@H](CCCNC(=N)N)NC1=O` [XQ24, Cyclo (tpFlrtpFlr)] (cyclo(F[dL][dR][dT][dP]F[dL][dR][dT][dP])), the “Remaining activity (%)” value is 93.4684% and 95.0442%; the remaining activity at 20 µM was determined as 94.2%; the inhibition at 20 µM came out at 5%.

Turning to `CC(C)C[C@@H]1NC(=O)[C@H](CCCNC(=N)N)NC(=O)[C@@H]2CCCN2C(=O)[C@@H](Cc2ccccc2)NC(=O)[C@H](CCCNC(=N)N)NC(=O)[C@H](C(C)C)NC(=O)[C@@H]2CCCN2C(=O)[C@@H](Cc2ccccc2)NC1=O` [XQ25, Cyclo (fPVRfPRL)] (cyclo(L[dF]PVR[dF]PR)), the “Remaining activity (%)” value was 114.007% and 112.821%; the remaining activity at 20 µM came out at 112%; the inhibition at 20 µM turned out to be 0%.

As for `N=C(N)NCCC[C@@H]1NC(=O)[C@@H]2CCCN2C(=O)[C@@H](Cc2ccccc2)NC(=O)[C@H](CCCNC(=N)N)NC(=O)[C@@H]2CCCN2C(=O)[C@@H](Cc2ccccc2)NC1=O` [XQ26, Cyclo (PRfPRf)] (cyclo(PR[dF]PR[dF])), the “Remaining activity (%)” value was 116.041% and 118.595%; the remaining activity at 20 µM amounted to 116%; the inhibition at 20 µM came to 0%.

For the compound `N=C(N)NCCC[C@@H]1NC(=O)[C@@H]2CCCN2C(=O)[C@H](Cc2ccccc2)NC(=O)[C@H](CCCNC(=N)N)NC(=O)[C@@H]2CCCN2C(=O)[C@@H](Cc2ccccc2)NC1=O` [XQ27, Cyclo (RfPRFP)] (cyclo(FPR[dF]PR)), the “Remaining activity (%)” value was 109.194% and 109.746%; the remaining activity at 20 µM amounted to 107%; the inhibition at 20 µM was found to be 0%.

`CC(C)C[C@@H]1NC(=O)[C@H](CCCNC(=N)N)NC(=O)[C@H]([C@@H](C)O)NC(=O)[C@@H]2CCCN2C(=O)[C@@H](Cc2ccccc2)NC(=O)[C@H](Cc2ccccc2)NC(=O)[C@H](CCCNC(=N)N)NC(=O)[C@H]([C@@H](C)O)NC(=O)[C@@H]2CCCN2C(=O)[C@@H](Cc2ccccc2)NC1=O` [XQ29, Cyclo (FfPTRLfPTR)] (cyclo(F[dF]PTRL[dF]PTR)): the “Remaining activity (%)” value is 92.9858% and 93.5702%; the remaining activity at 20 µM came out at 92.7%; the inhibition at 20 µM was 7%.

For the compound `CC(C)C[C@@H]1NC(=O)[C@H](CCCNC(=N)N)NC(=O)[C@H]([C@@H](C)O)NC(=O)[C@@H]2CCCN2C(=O)[C@@H](Cc2ccccc2)NC(=O)[C@H](C(C)C)NC(=O)[C@H](CCCNC(=N)N)NC(=O)[C@H]([C@@H](C)O)NC(=O)[C@@H]2CCCN2C(=O)[C@@H](Cc2ccccc2)NC1=O` [XQ30, Cyclo (VfPTRLfPTR)] (cyclo(L[dF]PTRV[dF]PTR)), the “Remaining activity (%)” value was 93.0523% and 92.7481%; the remaining activity at 20 µM came to 93.2%; the inhibition at 20 µM is 7%.

On to `CC(C)C[C@@H]1NC(=O)[C@H](CCCNC(=N)N)NC(=O)[C@H]([C@@H](C)O)NC(=O)[C@@H]2CCCN2C(=O)[C@@H](C(C)C)NC(=O)[C@H](CC(C)C)NC(=O)[C@H](CCCNC(=N)N)NC(=O)[C@H]([C@@H](C)O)NC(=O)[C@@H]2CCCN2C(=O)[C@@H](Cc2ccccc2)NC1=O` [XQ31, Cyclo (LvPTRLfPTR)] (cyclo(L[dF]PTRL[dV]PTR)), for which the “Remaining activity (%)” value is 70.1575% and 70.5622%; the remaining activity at 20 µM is 69.4%; the inhibition at 20 µM worked out at 30%.

On to `CC(C)C[C@@H]1NC(=O)[C@H](CCCNC(=N)N)NC(=O)[C@H]([C@@H](C)O)NC(=O)[C@@H]2CCCN2C(=O)[C@@H](Cc2ccccc2)NC(=O)[C@H](CC(C)C)NC(=O)[C@H](CCCNC(=N)N)NC(=O)[C@H]([C@@H](C)O)NC(=O)[C@@H]2CCCN2C(=O)CNC1=O` [XQ32, Cyclo (LgPTRLfPTR)] (cyclo(GPTRL[dF]PTRL)), for which the “Remaining activity (%)” value is 69.874% and 69.5698%; the remaining activity at 20 µM was 69.3%; the inhibition at 20 µM came out at 30%.

Consider `CC(C)C[C@@H]1NC(=O)[C@H](CCCNC(=N)N)NC(=O)[C@H]([C@@H](C)O)NC(=O)[C@@H]2C[C@@H](O)CN2C(=O)[C@@H](Cc2ccccc2)NC(=O)[C@H](CC(C)C)NC(=O)[C@H](CCCNC(=N)N)NC(=O)[C@H]([C@@H](C)O)NC(=O)[C@@H]2CCCN2C(=O)[C@@H](Cc2ccccc2)NC1=O` [XQ33, Cyclo (Lf(Hyp)TRLfPTR)] (cyclo([Hyp]TRL[dF]PTRL[dF])), for which the “Remaining activity (%)” value was 98.2995% and 98.5649%; the remaining activity at 20 µM is 97.1%; the inhibition at 20 µM amounted to 2%.

As to `CC(C)C[C@@H]1NC(=O)[C@H](CCCNC(=N)N)NC(=O)[C@H]([C@@H](C)O)NC(=O)[C@@H]2CCCN2C(=O)[C@@H](Cc2ccccc2)NC(=O)[C@H](CC(C)C)NC(=O)[C@H](CCCNC(=N)N)NC(=O)[C@H]([C@@H](C)O)NC(=O)[C@@H]2CCCN2C(=O)[C@@H](C)NC1=O` [XQ34, Cyclo (LaPTRLfPTR)] (cyclo(L[dA]PTRL[dF]PTR)), the “Remaining activity (%)” value was 102.306% and 102.914%; the remaining activity at 20 µM is 103%; the inhibition at 20 µM came out at 0%.

With `CC(C)C[C@@H]1NC(=O)[C@H](CCCNC(=N)N)NC(=O)[C@H]([C@@H](C)O)NC(=O)[C@@H]2CCCN2C(=O)[C@@H](Cc2ccccc2)NC(=O)[C@H](CC(C)C)NC(=O)[C@H](CCCNC(=N)N)NC(=O)[C@H]([C@@H](C)O)NC(=O)[C@H](C)NC(=O)[C@@H](Cc2ccccc2)NC1=O` [XQ35, Cyclo (LfATRLfPTR)] (cyclo(ATRL[dF]PTRL[dF])), the “Remaining activity (%)” value was 106.53% and 106.617%; the remaining activity at 20 µM came to 106%; the inhibition at 20 µM turned out to be 0%.

Source of the values: paper PMC10545747, “Development of cyclopeptide inhibitors of cGAS targeting protein-DNA interaction and phase separation” (Nature Communications, 2023).
